Source: the NIST ThermoML archive (doi:10.1016/j.jct.2006.09.015)

Key:
[1] = relative permittivity at various frequencies (dimensionless); conditions: 101.3 kPa, Liquid, Frequency=3 MHz, Bridge type OH-301 made in Radelcis, Hungary
[2] = relative permittivity at various frequencies (dimensionless); xn = mol fraction of the nth substance listed; conditions: 101.3 kPa, Liquid, Frequency=3 MHz, Bridge type OH-301 made in Radelcis, Hungary

COCCO [2-methoxyethan-1-ol]
[1]
Conditions	relative permittivity
293.15 K	17.38
298.15 K	16.95
303.15 K	16.56

COCCO [2-methoxyethan-1-ol] + OCCOCCO
[2], x1 = 1
Conditions	relative permittivity
293.15 K	17.38
298.15 K	16.95
303.15 K	16.56

COCCO [2-methoxyethan-1-ol] + OCCOCCOCCO
[2], x1 = 1
Conditions	relative permittivity
293.15 K	17.38
298.15 K	16.95
303.15 K	16.56

COCCO [2-methoxyethan-1-ol] + OCCOCCOCCOCCO
[2], x1 = 1
Conditions	relative permittivity
293.15 K	17.38
298.15 K	16.95
303.15 K	16.56

OCCOCCO [diethylene glycol]
[1]
Conditions	relative permittivity
293.15 K	31.81
298.15 K	30.95
303.15 K	30.03

OCCOCCO [diethylene glycol] + COCCO
relative permittivity, [2]
Conditions	293.15 K	298.15 K	303.15 K
x2 = 0	31.81	30.95	30.03
x2 = 0.0414	31.69	30.71	29.85
x2 = 0.0999	31.49	30.39	29.49
x2 = 0.2077	31.23	29.85	29.01
x2 = 0.3001	31.03	29.41	28.45
x2 = 0.4094	30.32	28.67	27.49
x2 = 0.4998	29.56	27.81	26.61
x2 = 0.5994	28.32	26.68	25.36
x2 = 0.6996	26.65	24.99	23.55
x2 = 0.7996	24.25	22.78	21.64
x2 = 0.9018	21.43	20.27	19.39
x2 = 0.9463	19.98	18.88	18.25

OCCOCCOCCO [triethylene glycol]
[1]
Conditions	relative permittivity
293.15 K	23.69
298.15 K	23.07
303.15 K	22.43

OCCOCCOCCO [triethylene glycol] + COCCO
relative permittivity, [2]
Conditions	293.15 K	298.15 K	303.15 K
x2 = 0	23.69	23.07	22.43
x2 = 0.05	23.69	23.05	22.42
x2 = 0.1	23.7	23.03	22.41
x2 = 0.2003	23.72	23.06	22.48
x2 = 0.2999	23.76	23.07	22.48
x2 = 0.4009	23.79	23.06	22.44
x2 = 0.5	23.82	22.95	22.35
x2 = 0.5999	23.77	22.76	21.91
x2 = 0.7	23.62	22.3	21.39
x2 = 0.8	22.92	21.54	20.43
x2 = 0.9	21.26	19.93	19.1
x2 = 0.9499	19.75	18.81	18.14
